What was measured:
[1] = system: catalepsy; conditions: in vivo studies, five times the ED50 dose; cited from earlier work
[2] = target: T1, 5-HT1A receptor (Homo sapiens, UniProt P08908); conditions: read-out: Binding data, Ki ± SEM, previously reported; cited from earlier work
T1 sequence (P08908 1-422): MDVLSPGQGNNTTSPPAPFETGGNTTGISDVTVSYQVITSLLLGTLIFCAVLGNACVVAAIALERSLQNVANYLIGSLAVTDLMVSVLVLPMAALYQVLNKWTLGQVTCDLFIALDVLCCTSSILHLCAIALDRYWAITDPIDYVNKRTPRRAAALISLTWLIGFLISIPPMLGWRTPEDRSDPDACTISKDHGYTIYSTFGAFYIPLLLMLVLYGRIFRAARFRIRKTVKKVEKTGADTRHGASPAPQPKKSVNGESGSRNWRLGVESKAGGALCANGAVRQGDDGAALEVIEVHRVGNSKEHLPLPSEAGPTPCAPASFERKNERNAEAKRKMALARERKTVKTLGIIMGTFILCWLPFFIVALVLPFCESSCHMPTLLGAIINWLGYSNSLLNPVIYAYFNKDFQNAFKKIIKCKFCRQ

[3] = target: T2, 5-HT2C receptor (Homo sapiens, UniProt P28335); conditions: read-out: Binding data, Ki ± SEM, previously reported; cited from earlier work
T2 sequence (P28335 33-458): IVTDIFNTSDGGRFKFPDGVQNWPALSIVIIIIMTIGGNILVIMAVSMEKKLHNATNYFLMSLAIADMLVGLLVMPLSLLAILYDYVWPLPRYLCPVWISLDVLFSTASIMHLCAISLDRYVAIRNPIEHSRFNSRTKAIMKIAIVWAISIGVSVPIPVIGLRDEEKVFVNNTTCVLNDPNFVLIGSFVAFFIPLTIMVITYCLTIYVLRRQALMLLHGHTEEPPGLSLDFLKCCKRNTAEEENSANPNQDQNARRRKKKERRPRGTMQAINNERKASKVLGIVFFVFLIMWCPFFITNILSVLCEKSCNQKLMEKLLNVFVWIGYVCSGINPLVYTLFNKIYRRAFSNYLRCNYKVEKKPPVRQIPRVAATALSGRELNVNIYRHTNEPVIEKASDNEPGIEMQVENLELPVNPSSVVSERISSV

[4] = target: T3, D4 receptor (Homo sapiens, UniProt P21917); conditions: read-out: Binding data, Ki ± SEM, previously reported; cited from earlier work
T3 sequence (P21917 1-419): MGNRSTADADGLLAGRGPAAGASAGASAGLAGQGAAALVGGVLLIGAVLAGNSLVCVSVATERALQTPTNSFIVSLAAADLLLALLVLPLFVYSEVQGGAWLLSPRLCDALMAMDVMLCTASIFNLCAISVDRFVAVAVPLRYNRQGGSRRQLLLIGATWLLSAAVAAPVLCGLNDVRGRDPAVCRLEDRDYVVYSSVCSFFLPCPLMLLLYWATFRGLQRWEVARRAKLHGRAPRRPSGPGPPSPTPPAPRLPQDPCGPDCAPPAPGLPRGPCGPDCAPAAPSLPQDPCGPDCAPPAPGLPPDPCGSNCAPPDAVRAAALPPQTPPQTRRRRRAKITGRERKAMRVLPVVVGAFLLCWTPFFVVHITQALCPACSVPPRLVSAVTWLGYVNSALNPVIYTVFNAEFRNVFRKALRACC

[5] = target: D2 receptor (Homo sapiens, UniProt P14416); experiment: NIMH-PDSP radioligand binding, D2
D2 receptor, sequence (P14416 whole entry): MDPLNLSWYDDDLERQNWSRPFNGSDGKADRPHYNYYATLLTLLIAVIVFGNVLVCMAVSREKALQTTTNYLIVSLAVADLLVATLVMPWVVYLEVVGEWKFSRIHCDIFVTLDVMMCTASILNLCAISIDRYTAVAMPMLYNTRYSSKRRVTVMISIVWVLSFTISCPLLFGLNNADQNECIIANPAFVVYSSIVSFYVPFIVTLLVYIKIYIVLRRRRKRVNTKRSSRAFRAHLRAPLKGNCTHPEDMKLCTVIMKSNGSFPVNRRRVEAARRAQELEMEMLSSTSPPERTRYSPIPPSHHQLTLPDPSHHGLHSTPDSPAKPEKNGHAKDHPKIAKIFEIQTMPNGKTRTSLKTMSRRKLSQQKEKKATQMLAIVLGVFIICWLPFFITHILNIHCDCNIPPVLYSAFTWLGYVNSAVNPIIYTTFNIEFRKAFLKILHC

[6] = target: T2, 5-HT2C receptor; experiment: NIMH-PDSP radioligand binding, 5-HT2C
[7] = target: T1, 5-HT1A receptor; experiment: NIMH-PDSP radioligand binding, 5-HT1A
[8] = target: T3, D4 receptor; experiment: NIMH-PDSP radioligand binding, D4
[9] = target: 5-HT2A receptor (Homo sapiens, UniProt P28223); experiment: NIMH-PDSP radioligand binding, 5-HT2A
5-HT2A receptor, sequence (P28223 whole entry): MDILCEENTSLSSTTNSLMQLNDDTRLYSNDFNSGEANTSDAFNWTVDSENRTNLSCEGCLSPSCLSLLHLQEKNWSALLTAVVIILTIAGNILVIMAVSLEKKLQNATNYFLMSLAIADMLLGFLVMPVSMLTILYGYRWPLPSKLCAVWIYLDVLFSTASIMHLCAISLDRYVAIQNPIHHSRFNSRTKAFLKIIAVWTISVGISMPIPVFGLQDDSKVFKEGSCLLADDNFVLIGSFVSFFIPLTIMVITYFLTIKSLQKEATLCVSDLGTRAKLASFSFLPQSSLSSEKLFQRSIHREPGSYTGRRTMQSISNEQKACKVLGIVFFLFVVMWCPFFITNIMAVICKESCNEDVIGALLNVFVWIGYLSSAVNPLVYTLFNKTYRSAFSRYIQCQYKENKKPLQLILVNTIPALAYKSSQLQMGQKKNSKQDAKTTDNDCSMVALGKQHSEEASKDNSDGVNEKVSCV

[10] = target: Histamine H1 receptor (Homo sapiens, UniProt P35367); experiment: NIMH-PDSP radioligand binding, H1
Histamine H1 receptor, sequence (P35367 whole entry, species assumed): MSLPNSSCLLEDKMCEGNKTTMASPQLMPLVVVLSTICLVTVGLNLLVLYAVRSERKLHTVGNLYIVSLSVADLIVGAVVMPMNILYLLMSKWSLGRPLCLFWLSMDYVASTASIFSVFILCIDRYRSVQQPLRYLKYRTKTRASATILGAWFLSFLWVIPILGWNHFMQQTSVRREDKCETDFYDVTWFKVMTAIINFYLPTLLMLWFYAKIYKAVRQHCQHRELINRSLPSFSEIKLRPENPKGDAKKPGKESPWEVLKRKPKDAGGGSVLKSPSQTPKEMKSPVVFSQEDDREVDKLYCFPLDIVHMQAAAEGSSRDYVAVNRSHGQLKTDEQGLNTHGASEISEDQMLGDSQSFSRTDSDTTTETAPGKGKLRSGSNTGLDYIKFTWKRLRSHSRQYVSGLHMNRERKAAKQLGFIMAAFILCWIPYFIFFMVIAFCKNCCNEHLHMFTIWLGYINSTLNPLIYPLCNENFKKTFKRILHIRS

Row | SMILES | Binding data; Ki ± SEM, D2 [5] | Binding data; Ki ± SEM, 5-HT2C [6] | Binding data; Ki ± SEM, 5-HT1A [7] | Binding data; Ki ± SEM, 5-HT2A [9] | other results
1 | O=C(CCCN1CCCN(c2ccc(Cl)cc2)CC1)c1ccc(F)cc1 [Compound 2, 4-(4-(4-chlorophenyl)-1,4-diazepan-1-yl)-1-(4-fluorophenyl)butan-1-one] |  |  |  |  | catalepsy [1]: without the associated catalepsy even at five times the ED50 dose
2 | O=C(CCCN1CCN(c2ccc(Cl)cc2)CC1)c1ccc(F)cc1 [Compound 3] |  |  |  |  | Ki [2]: 90.9 ± 21 nM; Ki [3]: 3550 ± 943 nM; Ki [4]: 17.5 ± 2 nM
3 | Clc1ccc(N2CCCN(CCCc3nc4ccccc4s3)CC2)cc1 [Compound 14, 2-(3-(4-(4-Chlorophenyl)-1,4-diazepan-1-yl)propyl)benzo [d]thiazole] | MP (Missed primary assay threshold of 50% inhibition) |  |  |  | 
4 | Clc1ccc(N2CCCN(Cc3nc4ccccc4s3)CC2)cc1 [Compound 15, 2-((4-(4-Chlorophenyl)-1,4-diazepan-1-yl)methyl)benzo [d]thiazole] |  | MP (Missed primary assay threshold of 50% inhibition) | MP (Missed primary assay threshold of 50% inhibition) | MP (Missed primary assay threshold of 50% inhibition) | Binding data; Ki ± SEM, D4 [8]: MP (Missed primary assay threshold of 50% inhibition); Binding data; Ki ± SEM, H1 [10]: MP (Missed primary assay threshold of 50% inhibition)
5 | O=C(CCCN1CCCN(c2ccc(Cl)cc2)CC1)c1nc2ccccc2s1 [Compound 17, 1-(Benzo[d]thiazol-2-yl)-4-(4-(4-chlorophenyl)-1,4-diazepan-1-yl)butan-1-one] | MP (Missed primary assay threshold of 50% inhibition) | MP (Missed primary assay threshold of 50% inhibition) | MP (Missed primary assay threshold of 50% inhibition) |  | 
6 | O=C(CCCCN1C2CCC1CC(O)(c1ccc(Cl)cc1)C2)c1nc2ccccc2s1 (stereo not shown) [Compound 18, 1-(Benzo[d]thiazol-2-yl)-5-(3-(4-chlorophenyl)-3-hydroxy-8-azabicyclo[3.2.1]octan-8-yl)pentan-1-one] |  | MP (Missed primary assay threshold of 50% inhibition) | MP (Missed primary assay threshold of 50% inhibition) | MP (Missed primary assay threshold of 50% inhibition) | 

Reference: paper PMC3356581 (Bioorganic & medicinal chemistry, 2012)
